Assay results: patent US20260242440A1, “NOVEL MEANS TO MODULATE NMDA RECEPTOR-MEDIATED TOXICITY” (FUNDAMENTAL PHARMA GMBH, priority 2018, published 2026)
Entries after “also recorded” stand apart in the source; their conditions may differ.

What was measured:
HEK293 cells = assay: Luminescent cytotoxicity assay, HEK293 cells transfected with GRIN1 and GRIN2A or GRIN2B; format: cell-based, human; details: compound added 6 h after transfection; cell death 48 h after transfection
Description: HEK293 cells were cultured in Dulbecco's Modified Eagle Medium (DMEM, Gibco™ 41965-039) supplement with 10% Fetal Bovine Serum (FBS, Gibco™, 10270), 1% Sodium Pyruvate (Gibco™, 11360070), 1% MEM NEAA (GibcoT^M, 11140035) and 0.5% Penicillin-Streptomycin (P-S; Sigma, P0781) and Passagel5-25 were used for experiments.
To test the cytotoxicity of compounds according to the present invention, HEK293 cells (70-80% confluent) were transfected 24 hours after plating with both GRIN1 and GRIN2 Å or GRIN2B, respectively (1:[…]) with Lipofectamine 2000 according to manufacturer's instructions. The relative number of dead cells in the population at the indicated time points after transfection was measured with the CytoTox-Glo™ Cytotoxicity assay (Promega, G9290) according to manufacturer's instruction with minor modification. Briefly, 10% of total medium were mixed with 10 μL AAF-amino luciferin to reach a final volume at 200 μL with water, the dead cell relative luminescence units (DRLU) was measured by GloMax (Promega) in a 96 well white bottom polystyrene microplate (Corning Costar®, 3912). After all the measurements, lysis reagents have been added to the cells and 10% of lysate was used for the total cell relative luminescence units (TRLU) measurement. Cell death was calculated by the following equations: […]
For drug testing, P4, P8, P9, P13 and P15 were added to the medium at indicated concentration 6 h after transfection. DRLU, TRLU and cell death were measured and calculated 48 h after transfection.

[1] = tested on: primary mouse hippocampal neurons; assay: NMDA receptor induced mitochondrial membrane potential breakdown (Rh123 imaging); format: cell-based
Description: Coverslips with primary cultured neurons (DIV15-DIV17) were used to examine mitochondrial membrane potential (Ψm) and mitochondrial calcium signalling, which was performed at room temperature in CO2-independent culture medium (CICM) containing: 10 mM HEPES, 140 mM NaCl, 2.5 mM KCl, 1.0 mM MgCl2, 2.0 mM CaCl2, 1.0 mM Glycine, 35.6 mM Glucose and 0.5 mM Na-pyruvate. All images were obtained by a cooled-CCD camera (iXon 887, Andor) on an upright microscope (BX51WI, Olympus). Fluorescence excitation was provided by a xenon arc lamp in combination with an excitation filter wheel (MT-20, Olympus). Data were collected using Cell^R software (Olympus), analysed using ImageJ and quantified using Igor Pro (WaveMetrics). Ψm was detected with the small molecule fluorescence indicator Rhodamine 123 (Rh123; Molecular Probe™, R302). Primary cultured neurons were loaded with 4.3 μM Rh123 in CICM at 37° C. for 30 min, then washed and left in CICM for another 30 min before recording. At the end of each experiment, the mitochondrial uncoupler FCCP (5 μM, Sigma-Aldrich, Cat #C2920) was applied to the cells to reach the maximal Rh123 fluorescence intensity. Rh123 was imaged with 470±20 nm excitation and 525±25 nm emission wavelengths using a 20× objective. Rh123 fluorescence intensity was measured in the nucleus to minimize contamination from cytosolic mitochondrial signal and Rh123 fluorescence intensity was normalized to the maximum FCCP signal for each region of interest.
Mitochondrial dysfunction is a hallmark of NMDA receptor excitotoxicity and an early event en-route to neuronal death. A parameter that is often used to assess mitochondrial integrity is the mitochondrial membrane potential. A breakdown of the mitochondrial membrane potential can be observed after exposure of hippocampal or cortical neurons to NMDA and indicates excitotoxicity-associated mitochondrial dysfunction. Therefore, the inventors investigated the effect of polypeptides comprising the sequence of SEQ ID NO:5 or SEQ ID NO: 54 as well as of the control TRMP5 sequence (SEQ ID NO: 55) on mitochondrial membrane potential break down in primary mouse hippocampal neurons. Excitotoxicity leading to mitochondrial membrane potential break down was induced with bath application of 20 μM NMDA. After 11 minutes, the mitochondrial uncoupler, carbonylcyanide-p-trifluoromethoxyphenylhydrazone (FCCP) was added. Addition of FCCP leads to break-down of the mitochondrial membrane potential and served as a control of the test system.

TRPM4 channel = target: T1, TRPM4 channel (Homo sapiens, UniProt Q8TD43); assay: TRPM4 channel function, whole-cell patch clamp in PC3 cells; format: cell-based; details: 10 μM compound, pre-incubated 30-60 min
T1 construct: PC3 cells are known to express TRPM4 channels; endogenous in cells; host or cells: PC3 prostate cancer cell line
T1 sequence (Q8TD43 whole entry): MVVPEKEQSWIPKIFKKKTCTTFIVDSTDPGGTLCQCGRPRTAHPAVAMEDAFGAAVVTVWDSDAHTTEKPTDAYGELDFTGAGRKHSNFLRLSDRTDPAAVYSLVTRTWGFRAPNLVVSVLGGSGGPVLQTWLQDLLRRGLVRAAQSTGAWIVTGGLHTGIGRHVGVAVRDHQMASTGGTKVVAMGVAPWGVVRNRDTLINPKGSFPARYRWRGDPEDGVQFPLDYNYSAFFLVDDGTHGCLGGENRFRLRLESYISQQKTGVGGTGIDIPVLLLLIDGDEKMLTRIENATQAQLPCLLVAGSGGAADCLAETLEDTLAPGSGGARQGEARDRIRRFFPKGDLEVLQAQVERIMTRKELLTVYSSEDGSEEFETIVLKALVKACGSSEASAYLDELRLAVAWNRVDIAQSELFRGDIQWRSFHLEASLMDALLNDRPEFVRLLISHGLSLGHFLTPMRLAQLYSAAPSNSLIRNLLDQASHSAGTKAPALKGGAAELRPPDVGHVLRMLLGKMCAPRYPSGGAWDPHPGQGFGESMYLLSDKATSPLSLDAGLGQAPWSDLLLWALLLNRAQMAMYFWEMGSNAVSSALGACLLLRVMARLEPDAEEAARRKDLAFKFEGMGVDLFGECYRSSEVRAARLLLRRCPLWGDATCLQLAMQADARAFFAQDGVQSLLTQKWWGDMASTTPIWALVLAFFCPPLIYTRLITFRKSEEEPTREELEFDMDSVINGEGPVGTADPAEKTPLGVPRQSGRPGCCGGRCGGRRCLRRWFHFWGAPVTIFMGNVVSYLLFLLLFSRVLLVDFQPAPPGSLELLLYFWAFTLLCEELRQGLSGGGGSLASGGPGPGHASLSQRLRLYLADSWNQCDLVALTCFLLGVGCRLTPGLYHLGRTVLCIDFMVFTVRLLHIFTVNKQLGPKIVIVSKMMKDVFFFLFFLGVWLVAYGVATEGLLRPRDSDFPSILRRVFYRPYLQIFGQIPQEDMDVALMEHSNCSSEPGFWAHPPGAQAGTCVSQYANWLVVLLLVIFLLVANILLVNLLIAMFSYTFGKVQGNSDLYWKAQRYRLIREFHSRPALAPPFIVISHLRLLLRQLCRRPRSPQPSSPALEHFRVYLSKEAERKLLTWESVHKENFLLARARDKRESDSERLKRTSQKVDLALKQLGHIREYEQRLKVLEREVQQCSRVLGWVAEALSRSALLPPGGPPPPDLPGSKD
Description: To assess any direct impact of compound P4 and compound P15 on TRPM4 channel function independent of NMDA receptors, the inventors used the prostate cancer cell line PC3 and patch clamp recordings. PC3 cells are known to express TRPM4 channels (C. Holzmann et al., Oncotarget. 6, 41783-93 (2015)). TRPM4 currents in turn are characterized by their calcium dependence and outward rectification (P. Launay et al., Cell. 109, 397-407 (2002)). Briefly, whole-cell patch clamp recordings were made from PC3 cells plated on 12 mm round coverslips secured with a platinum ring in a recording chamber (OAC-1, Science Products GmbH) mounted on a fixed-stage upright microscope (BX51WI, Olympus). […] Patch electrodes (3-4 MΩ) were made from 1.5 mm borosilicate glass and filled with cesium-based solutions (in mM: CsCl, 145; NaCl, 8; HEPES, 10; MgCl2, 1; plus either EGTA, 0.2 for a free Ca^2+ concentration of zero; or EGTA, 10 and CaCl2), 9.4 for a calculated free Ca^2+ concentration of 10 μM; Maxchelator, Stanford University). Recordings were made with a Multiclamp 700B amplifier, digitized through a Digidata 1550B and acquired and analyzed using pClamp 10 software (Molecular Devices). Access resistance (range: 10-20 MΩ) was monitored regularly during voltage clamp recordings and data was rejected if changes greater than 20% occurred.

synaptic NMDA receptor = assay: Gabazine induced calcium influx into mitochondria (synaptic NMDA receptor signalling); format: cell-based, mouse; details: primary cultured neurons, polypeptides expressed via rAAV
Description: Gabazine induced mitochondrial Ca^2+ response in primary cultured neurons is recorded and analysed as described in a previous study (Qiu et al, Nat Commun. 2013; 4:2034, incorporated herewith by reference) using a FRET calcium indicator 4mtD3cpv that specifically located to mitochondria. Briefly, mitochondrial Ca^2+ levels were detected with FRET-based and mitochondrial targeted Ca^2+ indicator 4mtD3cpv. 4mtD3cpv were excited at 430±12 nm (CFP) and 500±10 nm (YFP), and emission of CFP (470±12 nm) and YFP (535±15 nm) were separated and filtered using a DualView beam splitter (AHF Analysentechnik and MAG Biosystems), and all fluorescence images were recorded through a 20× water-immersion objective at 1 Hz.
In a further experiment the inventors assessed the impact of the polypeptide comprising the sequence of SEQ ID NO:5 and SEQ ID NO: 54, respectively, on Gabazine induced calcium influx (mitochondria), a measure of synaptic NMDA receptor signalling. The experiment was carried out in primary cultured neurons as described above.

| Compound | NMDA receptor induced cell death (HEK293 cells) | protection of mitochondrial membrane potential from NMDA excitotoxicity ([1]; compound applied 30 min prior to recording, bath application of NMDA) | TRPM4-like outwardly rectifying current activated by 10 μM Ca2+ (TRPM4 channel) | Gabazine induced calcium influx into mitochondria (synaptic NMDA receptor) | NMDA receptor induced mitochondrial membrane potential breakdown ([1]; polypeptides expressed via rAAV, bath application of 20 μM NMDA) |
| --- | --- | --- | --- | --- | --- |
| CCN(CCN)Cc1cccc(Br)c1 [P4] | reduced the level of NMDA receptor induced cell death | significantly protect mitochondrial membrane potential from NMDA excitotoxicity | not affected |  |  |
| SEQ ID NO:5: polypeptide, amino acid residues 633-689 of mouse TRPM4 (NSEERAARLLLRRCPLWGEATCLQLAMQADARAFFAQDGVQSLLTQKWWGEMDSTTP; listed as Mus musculus) |  |  |  | neither of these polypeptides affects synaptic NMDA receptor signalling; also recorded: not affected | capable of preventing NMDA receptor induced mitochondrial membrane potential breakdown |
